# Patent US20220259202A1, “1-(4-(AMINOMETHYL)BENZYL)-2-BUTYL-2H-PYRAZOLO[3,4-C]QUINOLIN-4-AMINE DERIVATIVES AND RELATED COMPOUNDS AS TOLL-LIKE RECEPTOR (TLR) 7/8 AGONISTS, AS WELL AS ANTIBODY DRUG CONJUGATES THEREOF FOR USE IN CANCER THERAPY AND DIAGNOSIS” (SUTRO BIOPHARMA, INC., priority 2019, published 2022)
# What was measured:
# Experiment in all cases: HEK293 SEAP reporter assay, other TLRs (Biological Example 3)
# Type in all cases: cell-based
# Conditions in all cases: 16 hrs, up to 1 μM
# human TLR9 = target: T1, human TLR9 (Homo sapiens, UniProt Q9NR96)
# T1 construct: host or cells: HEK293
# T1 sequence (Q9NR96 26-1032): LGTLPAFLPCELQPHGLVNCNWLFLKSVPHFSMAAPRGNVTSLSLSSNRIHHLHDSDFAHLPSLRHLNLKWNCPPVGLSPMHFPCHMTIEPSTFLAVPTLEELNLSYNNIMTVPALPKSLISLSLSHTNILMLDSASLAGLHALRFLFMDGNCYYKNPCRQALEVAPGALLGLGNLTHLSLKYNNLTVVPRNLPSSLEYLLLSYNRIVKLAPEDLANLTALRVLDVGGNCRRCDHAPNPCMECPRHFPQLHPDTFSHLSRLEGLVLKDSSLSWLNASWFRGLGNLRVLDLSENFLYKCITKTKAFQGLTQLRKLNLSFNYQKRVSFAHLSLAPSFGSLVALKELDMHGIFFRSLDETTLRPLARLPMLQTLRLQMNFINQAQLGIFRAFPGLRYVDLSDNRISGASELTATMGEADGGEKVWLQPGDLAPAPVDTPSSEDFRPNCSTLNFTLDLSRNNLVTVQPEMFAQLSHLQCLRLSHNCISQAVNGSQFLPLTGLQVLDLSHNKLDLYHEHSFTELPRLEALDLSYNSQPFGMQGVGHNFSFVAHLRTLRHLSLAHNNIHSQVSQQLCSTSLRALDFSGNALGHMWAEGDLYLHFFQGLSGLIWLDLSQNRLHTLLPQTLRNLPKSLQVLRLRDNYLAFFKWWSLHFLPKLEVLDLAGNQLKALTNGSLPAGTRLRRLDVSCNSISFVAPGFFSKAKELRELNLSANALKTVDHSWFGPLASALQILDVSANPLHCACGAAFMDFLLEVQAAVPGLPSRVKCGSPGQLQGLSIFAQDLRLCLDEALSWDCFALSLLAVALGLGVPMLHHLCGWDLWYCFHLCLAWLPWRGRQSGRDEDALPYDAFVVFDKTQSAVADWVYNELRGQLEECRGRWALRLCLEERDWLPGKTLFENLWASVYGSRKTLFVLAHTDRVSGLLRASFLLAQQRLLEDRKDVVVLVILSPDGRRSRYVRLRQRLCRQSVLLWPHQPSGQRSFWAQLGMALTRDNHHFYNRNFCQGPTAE
# Excerpt: (§1) In this example, the activity of the Compound 1 to stimulate different human and mouse TLR pathways was investigated on HEK293 cells transfected with inducible SEAP (secreted embryonic alkaline phosphatase) reporter genes and also expressing different human TLRs (TLR2, TLR3, TLR4, TLR5, TLR7, TLR8, TLRS) or mouse TLRs (TLR2, TLR3, TLR4, TLR5, TLR7, TLR8, TLR13). Compound A
# (§2) HEK293 reporter cell lines were purchased from Invivogen and cell lines were maintained in manufacture recommended culture medium with required supplemental antibiotics. On the day of assay, the cells were harvested with Accutase and counted by the Vi-CELL Cell Viability Analyzers. Cells were re-suspended in HEK blue detection medium and a total of 10000 cells were seeded in each well of a 384-well flat bottom plate. […] Assay plates were cultured at 37° C. in a CO2 incubator for 16 hrs. HEK-Blue™ Detection medium changes to a purple/blue color in the presence of secreted SEAP, which can be detected by spectrophotometry at 620-655 nm. Data was fitted with non-linear regression analysis, using a log(inhibitor) vs. response-variable slope, 3-parameter fit with GraphPad Prism.
# human TLR2 = target: T2, human TLR2 (Homo sapiens, UniProt O60603)
# T2 construct: host or cells: HEK293
# T2 sequence (O60603 21-784): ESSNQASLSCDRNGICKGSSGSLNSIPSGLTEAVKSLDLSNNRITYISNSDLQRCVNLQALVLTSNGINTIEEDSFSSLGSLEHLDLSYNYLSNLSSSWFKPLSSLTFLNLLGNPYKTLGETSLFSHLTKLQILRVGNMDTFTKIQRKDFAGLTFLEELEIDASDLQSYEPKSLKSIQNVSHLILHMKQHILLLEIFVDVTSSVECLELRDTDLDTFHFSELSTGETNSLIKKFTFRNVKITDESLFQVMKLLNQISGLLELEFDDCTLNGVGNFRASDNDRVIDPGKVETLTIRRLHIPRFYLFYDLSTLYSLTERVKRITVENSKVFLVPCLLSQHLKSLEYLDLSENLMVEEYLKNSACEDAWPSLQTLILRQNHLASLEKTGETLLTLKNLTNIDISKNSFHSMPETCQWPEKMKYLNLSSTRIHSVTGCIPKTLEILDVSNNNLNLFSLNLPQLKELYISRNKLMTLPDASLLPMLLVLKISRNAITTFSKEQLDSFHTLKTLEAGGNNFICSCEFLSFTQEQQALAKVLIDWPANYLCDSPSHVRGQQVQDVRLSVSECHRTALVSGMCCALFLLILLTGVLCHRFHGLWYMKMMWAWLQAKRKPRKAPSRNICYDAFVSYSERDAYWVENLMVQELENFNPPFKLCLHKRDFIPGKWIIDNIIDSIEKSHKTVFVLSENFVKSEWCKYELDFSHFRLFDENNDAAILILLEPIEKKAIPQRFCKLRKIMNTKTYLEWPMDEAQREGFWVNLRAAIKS
# Excerpt: as §1, §2
# mouse TLR8 = target: T3, mouse TLR8 (Mus musculus, UniProt P58682)
# T3 construct: host or cells: HEK293
# T3 sequence (P58682 24-1032): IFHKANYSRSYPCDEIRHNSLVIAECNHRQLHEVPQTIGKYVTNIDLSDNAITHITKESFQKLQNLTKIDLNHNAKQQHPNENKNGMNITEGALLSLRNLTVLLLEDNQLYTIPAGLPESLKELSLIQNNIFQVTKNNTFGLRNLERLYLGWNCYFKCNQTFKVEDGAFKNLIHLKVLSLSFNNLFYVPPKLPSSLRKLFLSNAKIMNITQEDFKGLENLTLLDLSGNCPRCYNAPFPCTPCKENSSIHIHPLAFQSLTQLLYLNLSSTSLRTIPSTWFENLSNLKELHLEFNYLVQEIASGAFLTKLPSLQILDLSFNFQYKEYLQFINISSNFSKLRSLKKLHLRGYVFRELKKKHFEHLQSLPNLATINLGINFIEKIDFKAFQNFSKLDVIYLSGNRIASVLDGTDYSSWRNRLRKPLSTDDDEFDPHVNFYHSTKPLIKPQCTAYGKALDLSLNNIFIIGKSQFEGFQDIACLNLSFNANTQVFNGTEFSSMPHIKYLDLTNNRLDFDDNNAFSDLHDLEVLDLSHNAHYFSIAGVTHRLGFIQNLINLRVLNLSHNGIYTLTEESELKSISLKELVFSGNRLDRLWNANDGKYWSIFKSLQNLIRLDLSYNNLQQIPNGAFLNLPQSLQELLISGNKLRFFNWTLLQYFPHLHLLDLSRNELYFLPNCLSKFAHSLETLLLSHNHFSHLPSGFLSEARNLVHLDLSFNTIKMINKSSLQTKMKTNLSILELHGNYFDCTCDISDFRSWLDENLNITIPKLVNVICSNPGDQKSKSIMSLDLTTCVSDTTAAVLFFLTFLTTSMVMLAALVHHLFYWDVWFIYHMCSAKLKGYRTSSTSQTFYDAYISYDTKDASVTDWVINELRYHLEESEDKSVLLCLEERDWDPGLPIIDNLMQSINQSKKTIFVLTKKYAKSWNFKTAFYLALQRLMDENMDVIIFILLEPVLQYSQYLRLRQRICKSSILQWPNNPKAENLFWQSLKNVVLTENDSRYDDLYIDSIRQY
# Excerpt: as §1, §2
# human TLR5 = target: T4, human TLR5 (Homo sapiens, UniProt O60602)
# T4 construct: host or cells: HEK293
# T4 sequence (O60602 21-858): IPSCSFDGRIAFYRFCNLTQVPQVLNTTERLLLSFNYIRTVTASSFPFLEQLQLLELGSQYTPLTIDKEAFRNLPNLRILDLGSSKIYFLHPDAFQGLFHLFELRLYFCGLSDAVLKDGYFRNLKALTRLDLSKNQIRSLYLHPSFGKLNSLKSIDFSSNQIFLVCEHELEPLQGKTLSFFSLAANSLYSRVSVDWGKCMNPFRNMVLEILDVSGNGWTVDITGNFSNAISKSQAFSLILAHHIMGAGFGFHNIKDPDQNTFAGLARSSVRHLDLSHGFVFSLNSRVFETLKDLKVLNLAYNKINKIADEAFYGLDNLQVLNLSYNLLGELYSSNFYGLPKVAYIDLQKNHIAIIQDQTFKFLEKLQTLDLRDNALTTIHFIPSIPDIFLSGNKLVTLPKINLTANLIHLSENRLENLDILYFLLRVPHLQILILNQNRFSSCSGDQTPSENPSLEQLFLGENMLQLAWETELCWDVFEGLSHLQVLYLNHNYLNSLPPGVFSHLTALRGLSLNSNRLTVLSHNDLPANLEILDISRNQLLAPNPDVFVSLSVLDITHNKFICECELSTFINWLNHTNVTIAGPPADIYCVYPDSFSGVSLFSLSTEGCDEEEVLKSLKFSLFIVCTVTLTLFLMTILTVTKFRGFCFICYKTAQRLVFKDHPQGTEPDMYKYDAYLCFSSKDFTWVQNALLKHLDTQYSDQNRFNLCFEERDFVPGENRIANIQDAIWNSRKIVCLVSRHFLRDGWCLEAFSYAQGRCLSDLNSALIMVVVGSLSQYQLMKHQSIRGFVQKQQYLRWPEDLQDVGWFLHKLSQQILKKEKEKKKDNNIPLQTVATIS
# Excerpt: as §1, §2
# mouse TLR5 = target: T5, mouse TLR5 (Mus musculus, UniProt Q9JLF7)
# T5 construct: host or cells: HEK293
# T5 sequence (Q9JLF7 27-859): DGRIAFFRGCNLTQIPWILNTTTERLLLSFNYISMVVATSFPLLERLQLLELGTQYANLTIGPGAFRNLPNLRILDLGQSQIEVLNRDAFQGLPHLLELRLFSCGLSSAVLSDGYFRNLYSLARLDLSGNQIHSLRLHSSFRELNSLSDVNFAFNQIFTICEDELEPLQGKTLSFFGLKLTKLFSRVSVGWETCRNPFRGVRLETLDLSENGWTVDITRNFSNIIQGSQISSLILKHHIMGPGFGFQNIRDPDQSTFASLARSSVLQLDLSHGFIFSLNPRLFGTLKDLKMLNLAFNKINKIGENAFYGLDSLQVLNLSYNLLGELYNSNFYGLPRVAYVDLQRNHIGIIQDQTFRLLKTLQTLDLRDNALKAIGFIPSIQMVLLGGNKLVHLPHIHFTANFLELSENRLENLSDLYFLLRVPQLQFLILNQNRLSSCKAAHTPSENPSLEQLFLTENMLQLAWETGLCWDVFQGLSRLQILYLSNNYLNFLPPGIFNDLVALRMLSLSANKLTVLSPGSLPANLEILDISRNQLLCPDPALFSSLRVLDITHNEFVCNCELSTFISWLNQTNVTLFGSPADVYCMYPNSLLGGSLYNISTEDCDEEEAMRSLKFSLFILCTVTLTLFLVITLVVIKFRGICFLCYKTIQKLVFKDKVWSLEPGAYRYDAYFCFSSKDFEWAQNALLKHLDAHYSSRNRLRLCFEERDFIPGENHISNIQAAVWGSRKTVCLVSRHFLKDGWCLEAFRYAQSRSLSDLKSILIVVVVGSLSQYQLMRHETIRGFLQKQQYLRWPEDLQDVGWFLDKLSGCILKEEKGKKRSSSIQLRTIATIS
# Excerpt: as §1, §2
EC50 (human TLR9) [µM],EC50 (human TLR2) [µM],EC50 (mouse TLR8) [µM],EC50 (human TLR5) [µM],EC50 (mouse TLR5) [µM],Structure (SMILES)
> 1,> 1,> 1,> 1,> 1,"CCCCn1nc2c(N)nc3ccccc3c2c1Cc1ccc(CN)cc1 [Compound 1, 1-(4-(aminomethyl)benzyl)-2-butyl-2H-pyrazolo[3,4-c]quinolin-4-amine]"
> 1,> 1,> 1,> 1,> 1,"CCCCc1nc2c(N)nc3ccccc3c2n1Cc1ccc(CN)cc1 [Compound A, reference compound]"
